Each block holds one compound with its values, some of them ahead of it.
How the values were obtained:
[1] = tested on: IgG antibody response to horse myoglobin (h-Mb); experiment: Inhibition of IgG and IgG subclass antibody response to horse myoglobin in immunized mice (anti-horse myoglobin ELISA); type: in vivo, DBA/2 mice; conditions: vs saline control mice
Procedure: ELISA plates were coated with 10 ug/ml commercially available horse myoglobin (h-Mb) in PBS 50 ul/well overnight at 4 deg C. The plates were washed with PBS once. The plates were then coated with 50 ul BBA (1 mg/ml) and washed with PBS once. The plates were then coated with test serum diluted in PBS-Tween, 50 ul/well and incubated at 4 deg C. overnight. The plates were then washed with PBS-Tween three times. Anti-IgG (1:2000) was added and diluted with PBS-Tween. For the IgG antibody subclasses, anti-IgG1, anti-IgG2a, anti-IgG2b was diluted and added to selected wells. Incubation was at 4 deg C. for two hours. Washing was with PBS-Tween 2 times with 5 minutes between each wash. A 1 mg/ml OPD in citrate buffer solution pH5 was prepared and 10 ul of H2O2/10 ml was added to the buffer solution. 50 ul of buffer was added to each well and the plates were placed in the dark for about 10 minutes. The reaction was stopped with 50 ul of 5N H2SO4 in each well. The plates were then read on an Elisa reader.
The following immunization protocol was repeated several times. The results have been collected in FIGS. 1a-d.
This experiment was done using two groups of 2-6 DBA/2 mice (average weight 22 grams). One group of mice were given one treatment of compound 3 intravenously one day before antigen treatment (day-1) and two days following antigen treatment (day+2). The dose of compound 3 was approximately 36 mg/kg in 100 ul of PBS. The other group of mice was given a saline control in 100 ul PBS. On day 0 the two groups of mice were injected with 100 ug h-Mb in 100 ul CFA intravenously (i.v.). The mice were then boosted fourteen days later with 100 ug of h-Mb in 100 ul IFA. The mice were bled 30 days later.

[2] = tested on: H3; experiment: Dominant interactions of congeners with histamine receptors: H3; type: binding; conditions: Human lymphocytes, monocytes and neutrophils
[3] = tested on: phytohemagglutinin-induced Th proliferation; conditions: pretreatment of human Ts cells with histamine; mediated via H2 receptors; cited from earlier work
[4] = tested on: murine NS cells; conditions: in vitro; cited from earlier work
[5] = tested on: Hx; experiment: Dominant interactions of congeners with histamine receptors: Hx; type: binding, Human
[6] = tested on: human Ts cells; conditions: Khan et al. 1985, Sansoni et al. 1985; cited from earlier work
[7] = tested on: pokeweed mitogen-induced B cell differentiation; conditions: pretreatment of human Ts cells with histamine; mediated via H2 receptors; cited from earlier work
[8] = biological target: H2 (Homo sapiens, UniProt P25021); experiment: Dominant interactions of congeners with histamine receptors: H2; type: binding
[9] = biological target: H1 (Homo sapiens, UniProt P35367); experiment: Dominant interactions of congeners with histamine receptors: H1; type: binding
[10] = comparable experiment using Compound 1, FIG. 3
[11] = compound 3 approx. 36 mg/kg i.v. day -1 and day +2, FIG. 1

Sequence of H2 (P25021 whole entry): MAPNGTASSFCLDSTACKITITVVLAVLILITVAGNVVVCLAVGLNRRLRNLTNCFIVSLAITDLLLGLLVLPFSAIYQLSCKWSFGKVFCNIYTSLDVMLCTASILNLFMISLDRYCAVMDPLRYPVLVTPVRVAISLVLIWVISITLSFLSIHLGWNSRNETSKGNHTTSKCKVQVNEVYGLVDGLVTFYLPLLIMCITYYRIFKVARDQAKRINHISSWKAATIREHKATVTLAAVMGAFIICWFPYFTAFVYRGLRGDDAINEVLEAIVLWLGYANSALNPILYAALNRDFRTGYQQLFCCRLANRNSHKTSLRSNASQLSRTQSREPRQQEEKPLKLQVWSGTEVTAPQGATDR
Sequence of H1 (P35367 whole entry): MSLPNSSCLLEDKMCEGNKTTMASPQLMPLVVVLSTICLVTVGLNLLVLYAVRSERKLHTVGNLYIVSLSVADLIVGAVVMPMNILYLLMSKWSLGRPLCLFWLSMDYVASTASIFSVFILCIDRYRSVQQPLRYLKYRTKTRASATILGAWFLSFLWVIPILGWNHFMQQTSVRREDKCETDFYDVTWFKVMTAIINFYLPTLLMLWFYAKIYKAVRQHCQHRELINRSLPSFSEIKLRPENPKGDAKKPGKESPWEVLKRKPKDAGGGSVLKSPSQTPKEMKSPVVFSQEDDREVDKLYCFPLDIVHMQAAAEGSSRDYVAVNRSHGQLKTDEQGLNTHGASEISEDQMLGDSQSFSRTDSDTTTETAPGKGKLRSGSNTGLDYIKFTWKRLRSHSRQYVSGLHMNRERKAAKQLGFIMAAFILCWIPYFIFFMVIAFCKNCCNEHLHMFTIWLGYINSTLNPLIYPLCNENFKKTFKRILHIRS

H3 dominant interaction [2]: AntiHx
SMILES: CC(CCCCC(=O)Nc1ccc(C(F)(F)F)cc1)NCCc1c[nH]cn1 (stereo not shown) [Compound 1, His--NH--CHCH3--(CH2)4 CONH--phi--CF3]
IgG1 response [1, 10]: lower | IgG2a response [1, 10]: lower | IgG response [1, 10]: lower

Hx dominant interaction ([5]; Human lymphocytes, monocytes and neutrophils): AntiHx
SMILES: NCCc1c[nH]cn1 [Histamine]
phytohemagglutinin-induced Th proliferation [3]: inhibited | effect on suppressive ability of murine NS cells [4]: enhances the suppressive ability of murine NS cells in vitro | effect on human Ts cells [6]: activates human Ts cells | pokeweed mitogen-induced B cell differentiation [7]: inhibited

H1 receptor activity (in words) [9]: not H1 receptor activity | Hx activity (in words) [5]: some Hx activity
SMILES: O=C(CCCCCNCCc1c[nH]cn1)Nc1ccc(C(F)(F)F)cc1 [Compound 3, His--NH--(CH2)5 CONH--phi--CF3]
H2 receptor activity (in words) [8]: has been shown to have H2 receptor activity | IgG1 response [1, 11]: lower | IgG2a response [1, 11]: lower | IgG2b response [1, 11]: lower | total IgG response to h-Mb [1, 11]: much lower

— US5556872A, “Histamine derivatives useful as immunomodulators” (The Board of Trustees of the Leland Stanford Junior …, priority 1995, dated 1996)
